One test concerns the target Menin protein (Homo sapiens, UniProt O00255, DEL460-519). The test is described as follows: Menin/MLL fluorescence polarization (FP) assay. To be noted: Menin 2 nM, cRho110-Ahx-MBM1/MBM2 peptide 1 nM. Format: binding. Put shortly:
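Fluorescence polarization of 1 nM cRho110-labelled MBM1/MBM2 peptide with 2 nM His-tagged Menin in 50 mM Tris pH 7.5, 50 mM NaCl, 1 mM TCEP, 0.01% BGG, 0.01% Brij-35. Compound series: 10-fold dilutions from 10 μM; 480/535 nm, read every 5 min for 180 min. IC50 via one-site fit, normalized to no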
On the technique in general: Polarisation of emitted light reports the rotation of a fluorescent probe.

For the next test, the target named is hERG (Homo sapiens (Human), UniProt Q12809). The experiment in a line: hERG assay 2, QPatch II 48X, room temperature. In kind it is cell-based. To be noted: hERG DUO cell line, top 200 μM. How it is done: Experiments were performed on the QPatch II 48X (Sophion Biosciences) high throughput patch clamp platform at room temperature and used single hole Qplates. hERG DUO cell line (BSys) was used. The internal patch clamp solution was KF 60 mM, KCl 70 mM, HEPES 10 mM, EGTA 10 mM, and 5 mM Mg ATP (pH7.2). After sealing and whole cell access was gained the external solution (NaCl 140 mM, KCl 4 mM, HEPES 10 mM, CaCl2 2 mM, MgCl2 1 mM, glucose 5 mM (pH 7.4) was applied twice to establish stable baseline currents. An industry standard +40/−40 mV voltage protocol was applied every 15 seconds. All compounds were tested in a 6-point cumulative assay (final DMSO concentration 0.4-2% depending on stock concentration of compounds). Compounds were dispensed from initial 10 mM or 50 mM DMSO stocks after which DMSO dilutions were undertaken with a top concentration of 200 μM tested. Solvent controls were run in all experiments in line with the DMSO % required. Only wells that passed acceptance criteria for this platform were used in this analysis (500 MegaOhm seal resistance and current size >0.2 nA). Analysis was completed in Prism Graphpad to complete a composite IC50, by plotting % inhibition versus log compound concentration and using a log(inhibitor) vs. response—Variable slope.
Chain of hERG (Q12809 whole entry): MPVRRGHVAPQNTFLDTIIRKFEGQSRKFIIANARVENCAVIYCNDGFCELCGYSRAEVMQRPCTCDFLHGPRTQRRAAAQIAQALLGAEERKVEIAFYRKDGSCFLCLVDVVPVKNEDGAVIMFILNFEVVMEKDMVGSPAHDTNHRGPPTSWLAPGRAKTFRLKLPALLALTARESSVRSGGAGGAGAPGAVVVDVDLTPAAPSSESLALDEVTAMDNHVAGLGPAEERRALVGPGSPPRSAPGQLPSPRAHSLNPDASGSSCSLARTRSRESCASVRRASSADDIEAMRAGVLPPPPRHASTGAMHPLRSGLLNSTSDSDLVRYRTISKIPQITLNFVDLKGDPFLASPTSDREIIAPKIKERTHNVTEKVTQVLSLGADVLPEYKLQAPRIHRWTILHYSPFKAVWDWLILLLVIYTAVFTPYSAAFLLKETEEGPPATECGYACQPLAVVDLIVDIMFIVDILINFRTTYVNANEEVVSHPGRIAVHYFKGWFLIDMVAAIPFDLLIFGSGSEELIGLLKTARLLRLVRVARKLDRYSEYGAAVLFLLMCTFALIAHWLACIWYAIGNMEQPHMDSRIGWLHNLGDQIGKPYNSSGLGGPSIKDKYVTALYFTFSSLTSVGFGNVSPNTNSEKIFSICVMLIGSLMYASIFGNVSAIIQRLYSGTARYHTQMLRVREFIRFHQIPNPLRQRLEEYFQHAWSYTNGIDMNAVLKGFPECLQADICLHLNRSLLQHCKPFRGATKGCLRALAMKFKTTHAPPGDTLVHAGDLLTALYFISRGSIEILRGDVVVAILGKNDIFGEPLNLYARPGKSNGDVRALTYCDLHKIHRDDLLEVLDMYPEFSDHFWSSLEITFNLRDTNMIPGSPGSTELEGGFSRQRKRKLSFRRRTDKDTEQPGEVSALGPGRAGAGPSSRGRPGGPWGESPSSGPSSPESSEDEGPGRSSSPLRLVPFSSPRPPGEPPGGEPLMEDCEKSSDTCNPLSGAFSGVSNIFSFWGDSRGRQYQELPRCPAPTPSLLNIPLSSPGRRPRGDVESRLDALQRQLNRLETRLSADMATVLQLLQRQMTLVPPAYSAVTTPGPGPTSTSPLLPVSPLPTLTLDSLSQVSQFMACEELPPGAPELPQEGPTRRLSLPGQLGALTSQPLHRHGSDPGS
In general terms: hERG is a cardiac potassium channel; its block is linked to QT prolongation.

A further test addresses muscarinic M2 receptor (Homo sapiens (Human), UniProt P08172). The test is described as follows: Muscarinic M2 receptor functional assay, antagonist effect (assay 2). To be noted: cAMP, 1 μM acetylcholine. Format: cell-based. How it is done:
Thereafter, the reference agonist acetylcholine and the adenylyl cyclase activator NKH 477 were added at respective final concentrations of 1 μM and 5 μM. For basal control measurements, acetylcholine was omitted from the wells containing 10 μM methoctramine. Following 10 minutes incubation at 37° C., the cells were lysed, and the fluorescence acceptor (D2-labeled cAMP) and fluorescence donor (anti-cAMP antibody labelled with europium cryptate) were added. After 60 minutes at room temperature, the fluorescence transfer was measured at λex=337 nm and λem=620 and 665 nm using a microplate reader (Rubystar, BMG). The cAMP concentration was determined by dividing the signal measured at 665 nm by that measured at 620 nm (ratio). The results were expressed as a percent inhibition of the control response to 1 μM acetylcholine. For test compounds and for standard reference antagonist methoctramine, which is tested in each experiment, assays were run in eight-point concentration response mode and IC50 values determined following non-linear regression curve analysis. Curve analysis was completed using software developed at Cerep (Hill software) and validated by comparison with data generated by the commercial software SigmaPlot®4.0 for Windows® (© 1997 by SPSS Inc.).

The target in another test is hERG ion channel (Homo sapiens (Human), UniProt Q12809). The experiment in a line: hERG assay 3, QPatchII 48X, 30 degrees Celsius. To be noted: CHO cells. Format: cell-based. How it is done: Experiments were performed on the QPatchII 48X(Sophion Biosciences) high throughput patch clamp platform at 30 degrees Celsius using single holes QChips (Sophion Bioscience). Chinese hamster ovary K1 (CHO) cell lines over-expressing the hERG ion channel were used from live culture. All compounds were dispensed as solid stocks in glass vials. Compounds were solubilised to 10 or 50 mM DMSO stocks on the day of experiments, after which dilutions in DMSO we undertaken. Stamps of DMSO stocks were made into an MTP plate using glass vials, after which extracellular solution was backfilled creating testing concentrations with a highest concentration of 40 and 200 μM, respectively. The internal patch clamp solution was KF 60 mM, KCl 70 mM, HEPES 10 mM, EGTA 10 mM, and 5 mM Mg ATP (pH7.2).
Chain of hERG ion channel (Q12809 whole entry): as above

The test system of the next test is CBAM-68552. The test is described as follows: MLLr AML patient derived disseminated xenograft model CBAM-68552. In kind it is in vivo, female NSG mice. To be noted: 150 mg/kg oral twice daily, 21 days. How it is done: Viably frozen A. CBAM-68552, B. CBAM-44728, and C. DFAL-49600 single cell suspensions from spleens of donor mice were prepared into frozen stock. Flow cytometry antibodies for Ter119 (Miltenyi 130-112-914), mouse CD45 (Miltenyi 130-110-665), and human CD45 (Miltenyi 130-110-634) and Fixable Live Dead Stain (ThermoFisher; #L34963) for disease evaluation via flow cytometry on MACSQuant (Miltenyi). Compound 56-2 was formulated in water at pH 4.5-5 using 1M MSA as pH-adjusting agent at concentrations up to 100 mg/mL to achieve a uniform suspension and dosed twice daily by oral gavage 10 mL/kg.
A. CBAM-68552, B. CBAM-44728, and C. DFAL-49600 cells were thawed and 1 million cells implanted via the tail vein in to female NSG mice. Mice were randomized into groups of 5 when human CD45 levels reached average of A. CBAM-68552 6.5%, B. CBAM-44728 4.8%, and C. DFAL-49600 12.4% in the bone marrow of satellite animals. Mice were treated for 21 days with vehicle (water at pH 4.5-5 using 1 M MSA) or Compound 56-2 at 150 mg/kg. Compound 56-2 was dosed orally twice daily 8/16 hours apart and mice were monitored for overall survival. FIGS. 3-A, 3-B, and 3-C further illustrate the effect of treatment with Compound 56-2 in human MLLr AML Patient Derived Disseminated Xenograft Models A. CBAM-68552, B. CBAM-44728, and C. DFAL-49600, respectively.
A general note: A xenograft is tissue or cells of one species grown in another, often human tumour cells in immunodeficient mice.

Chain of Menin protein (O00255 with tags, fused parts or gaps DEL460-519): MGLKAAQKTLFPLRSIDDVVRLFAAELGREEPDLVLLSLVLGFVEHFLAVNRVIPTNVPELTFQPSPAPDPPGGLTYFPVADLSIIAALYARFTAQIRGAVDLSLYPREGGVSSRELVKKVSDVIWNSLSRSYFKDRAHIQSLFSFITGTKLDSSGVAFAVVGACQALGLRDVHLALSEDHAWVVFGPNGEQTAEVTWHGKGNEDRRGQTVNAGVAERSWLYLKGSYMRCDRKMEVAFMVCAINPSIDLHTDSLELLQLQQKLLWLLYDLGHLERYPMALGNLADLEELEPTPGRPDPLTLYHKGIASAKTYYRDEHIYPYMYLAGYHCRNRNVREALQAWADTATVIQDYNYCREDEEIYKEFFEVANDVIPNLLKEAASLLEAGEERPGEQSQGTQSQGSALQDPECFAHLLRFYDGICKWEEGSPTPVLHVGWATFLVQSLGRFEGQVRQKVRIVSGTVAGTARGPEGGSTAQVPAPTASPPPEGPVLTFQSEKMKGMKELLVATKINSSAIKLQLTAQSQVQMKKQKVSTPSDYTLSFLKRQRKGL
Chain of muscarinic M2 receptor (P08172 whole entry): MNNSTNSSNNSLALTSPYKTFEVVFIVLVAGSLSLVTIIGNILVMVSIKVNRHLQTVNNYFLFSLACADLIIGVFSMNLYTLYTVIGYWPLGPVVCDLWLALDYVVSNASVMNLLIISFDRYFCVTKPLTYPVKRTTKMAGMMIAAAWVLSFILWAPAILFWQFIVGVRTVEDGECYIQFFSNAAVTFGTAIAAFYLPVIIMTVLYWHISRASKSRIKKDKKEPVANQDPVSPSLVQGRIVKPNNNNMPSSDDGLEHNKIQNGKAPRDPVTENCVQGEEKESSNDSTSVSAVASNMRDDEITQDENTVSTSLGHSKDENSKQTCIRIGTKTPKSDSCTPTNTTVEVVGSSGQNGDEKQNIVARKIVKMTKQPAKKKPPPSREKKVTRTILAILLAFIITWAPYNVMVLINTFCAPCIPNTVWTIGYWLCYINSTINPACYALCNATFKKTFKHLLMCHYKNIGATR

What is called IC50 is the point on the concentration scale where inhibition reaches its midpoint. Turning to `CCN(C(=O)c1cc(F)ccc1-n1cc(C(=O)C2CCN(C(=O)[C@H]3NC[C@@H]4C[C@@H]43)CC2)c2ccncc21)C(C)C` [Example 28, 2-(3-(1-((1S,2S,5R)-3-Azabicyclo[3.1.0]hexane-2-carbonyl)piperidine-4-carbonyl)-1H-pyrrolo[2,3-c]pyridin-1-yl)-N-ethyl-5-fluoro-N-isopropylbenzamide], the IC50 is 0.017 µM at Menin protein and over 200 µM on hERG.

For `CC(C)N(C(=O)c1cc(F)ccc1-n1cc(C(=O)C2CCN(C(=O)[C@H]3N[C@@H]4CC[C@H]3C4)CC2)c2ccncc21)C(C)C` [Example 16, 2-(3-(1-((1R,3S,4S)-2-Azabicyclo[2.2.1]heptane-3-carbonyl)piperidine-4-carbonyl)-1H-pyrrolo[2,3-c]pyridin-1-yl)-5-fluoro-N,N-diisopropylbenzamide], the IC50 against hERG came out at 128 µM; against muscarinic M2 receptor, 1.1 µM.

`CC(C)N(C(=O)c1cc(F)ccc1-n1cc(C(=O)C2CCN(C(=O)[C@H]3NC[C@@H]4C[C@@H]43)CC2)c2ccncc21)C(C)C` [Example 19, 2-(3-(1-((1S,2S,5R)-3-Azabicyclo[3.1.0]hexane-2-carbonyl)piperidine-4-carbonyl)-1H-pyrrolo[2,3-c]pyridin-1-yl)-5-fluoro-N,N-diisopropylbenzamide]: the IC50 on hERG amounted to 128 µM; against muscarinic M2 receptor, 21.3 µM.

Regarding `Cc1c(C(=O)C2CCN(C(=O)[C@H]3NC[C@@H]4C[C@@H]43)CC2)c2ccncc2n1-c1ccc(F)cc1C(=O)N(CC(F)(F)F)C(C)C` (single isomer, unassigned) [Example 51-2], the IC50 is 0.022 µM at Menin protein and over 200 µM at hERG.

As to `Cc1c(C(=O)C2CCN(C(=O)[C@@H]3CCC4(CC4)N3)CC2)c2ccncc2n1-c1ccc(F)cc1C(=O)N1[C@H](C)COC[C@H]1C` (single isomer, unassigned) [Example 58-2], the figures for the IC50 against Menin protein, on hERG ion channel and against muscarinic M2 receptor were 0.03 µM, 111 µM and 8.6 µM, respectively.

Regarding `Cc1c(C(=O)C2CCN(C(=O)[C@@H]3CCC(C)(C)N3)CC2)c2ccncc2n1-c1ccc(F)cc1C(=O)N(C(C)C)C(C)C` (single isomer, unassigned) [Compound 56-2], the IC50 at Menin protein turned out to be 0.043 µM; at hERG, 138 µM; on hERG ion channel, 42.9 µM. Besides, the “LATENCY (overall survival)” value with CBAM-68552 was 188 days.

As for `Cc1c(C(=O)C2CCN(C(=O)[C@H]3NC[C@@H]4C[C@@H]43)CC2)c2ccncc2n1-c1ccc(F)cc1C(=O)N(C(C)C)C(C)C` (single isomer, unassigned) [Example 55-2], the IC50 came out at 0.009 µM at Menin protein and 82.3 µM against hERG.

As for `CC(C)N(C(=O)c1cc(F)ccc1-n1cc(C(=O)[C@H]2CCN(C(=O)[C@H]3N[C@@H]4CC[C@H]3C4)C2)c2ccncc21)C(C)C` [Example 2, 2-(3-((S)-1-((1R,3S,4S)-2-Azabicyclo[2.2.1]heptane-3-carbonyl)pyrrolidine-3-carbonyl)-1H-pyrrolo[2,3-c]pyridin-1-yl)-5-fluoro-N,N-diisopropylbenzamide], the IC50 at hERG was over 200 µM; against muscarinic M2 receptor, 5.2 µM.

On to `CC(C)c1ncccc1-c1cc(F)ccc1-n1cc(C(=O)C2CN(C(=O)[C@H]3N[C@@H]4CC[C@H]3C4)C2)c2ccncc21` [Example 10, (1-((1R,3S,4S)-2-Azabicyclo[2.2.1]heptane-3-carbonyl)azetidin-3-yl)(1-(4-fluoro-2-(2-isopropylpyridin-3-yl)phenyl)-1H-pyrrolo[2,3-c]pyridin-3-yl)methanone], for which the IC50 worked out at 79.1 µM on hERG and 33.8 µM against hERG ion channel.

Consider `CC(C)N(C(=O)c1cc(F)ccc1-n1cc(C(=O)C2CN(C(=O)[C@H]3N[C@@H]4CC[C@H]3C4)C2)c2ccncc21)C(C)C` [Example 5, 2-(3-(1-((1R,3S,4S)-2-Azabicyclo[2.2.1]heptane-3-carbonyl)azetidine-3-carbonyl)-1H-pyrrolo[2,3-c]pyridin-1-yl)-5-fluoro-N,N-diisopropylbenzamide], for which the half-maximal inhibitory concentration (IC50) on hERG was over 200 µM; against muscarinic M2 receptor it was over 100 µM.

For the molecule `CC(C)N(C(=O)c1cc(F)ccc1-n1cc(C(=O)C2CCN(C(=O)[C@H]3NC4CCC3CC4)CC2)c2ccncc21)C(C)C` [Example 20, (S)-2-(3-(1-(2-Azabicyclo[2.2.2]octane-3-carbonyl)piperidine-4-carbonyl)-1H-pyrrolo[2,3-c]pyridin-1-yl)-5-fluoro-N,N-diisopropylbenzamide], the IC50 was 0.022 µM on Menin protein, over 200 µM on hERG and 5.2 µM against muscarinic M2 receptor.

For the molecule `CCN(C(=O)c1cc(F)ccc1-n1c(C)c(C(=O)C2CCN(C(=O)[C@H]3NC[C@@H]4C[C@@H]43)CC2)c2ccncc21)C(C)C` [Example 47, 2-(3-(1-((1S,2S,5R)-3-Azabicyclo[3.1.0]hexane-2-carbonyl)piperidine-4-carbonyl)-2-methyl-1H-pyrrolo[2,3-c]pyridin-1-yl)-N-ethyl-5-fluoro-N-isopropylbenzamide], the figures for the IC50 on hERG and against muscarinic M2 receptor were 194 µM and 62.8 µM, respectively.

Turning to `CCN(C(=O)c1cc(F)ccc1-n1c(C)c(C(=O)C2CCN(C(=O)[C@H]3NC[C@@H]4C[C@@H]43)CC2)c2ccncc21)C(C)C` (single isomer, unassigned) [Example 48-2], the IC50 at Menin protein was 0.013 µM; on hERG, over 200 µM.

For the origin of these results see patent US20240335431A1, “1-H-PYRROLO[2,3-c]PYRIDINE COMPOUNDS” (Acerta Pharma B.V., priority 2023, published 2024).
